Data: the supplement of paper PMC10627819

What was measured:
B. subtilis 168 [1] = assay: Bliss interaction score (quartile over a dose matrix) (fitness difference); higher = more antagonism (negative = synergy)
Outline: (§1)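 OD595 was read at entry into stationary phase and expressed relative to the robust mean of the no-drug wells on the same plate, capped at 1. The resulting ratio is the fitness value. The Bliss score, observed fitness minus product-based expected fitness with single-drug fitness inferred from combinations, is summarised by quartiles over technical, biological and donor/recipient replicates.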

S. aureus Newman [2] = assay: as above
Outline: as §1

S. aureus DSM 20231 [3] = assay: as above
Outline: as §1

S. pneumoniae D39V [4] = assay: as above
Outline: as §1

B. subtilis 168 [5] = assay: fitness (endpoint OD595 vs no drug) (fraction); higher = more growth
Outline: (§2)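 At 37 °C, bacteria in TSB, LB Lennox or CY were grown in 384-well plates from a starting OD595 of 0.01. OD595 was measured every 30 min for 14 h, with the first reading used as background. Fitness is the optical density at the switch to stationary phase as a fraction of the robust mean of no-drug control wells, capped at 1.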

S. aureus Newman [6] = assay: as above
Outline: as §2

S. aureus DSM 20231 [7] = assay: as above
Outline: as §2

S. pneumoniae D39V [8] = assay: as above
Outline: as §2
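Throughout, for Bliss interaction score (quartile over a dose matrix): first quartile when negative (synergy) and third quartile when positive (antagonism).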

COc1ccc(C[C@H](N)C(=O)N[C@H]2[C@@H](O)[C@H](n3cnc4c(N(C)C)ncnc43)O[C@@H]2CO)cc1 [Puromycin] + Cc1cc(NS(=O)(=O)c2ccc(N)cc2)no1 [Sulfamethoxazol]
Conditions	Bliss interaction score
B. subtilis 168 [1]	0.0514
S. aureus DSM 20231 [3]	0.0554
S. aureus Newman [2]	0.0386
S. pneumoniae D39V [4]	0.113

one replicate
Conditions	fitness
B. subtilis 168 [5], first compound 0.39 µg/mL, partner 0.5 µg/mL	≥ 1
B. subtilis 168 [5], first compound 0.78 µg/mL, partner 0.5 µg/mL	0.996
B. subtilis 168 [5], first compound 1.56 µg/mL, partner 0.5 µg/mL	0.992
S. aureus DSM 20231 [7], first compound 3.12 µg/mL, partner 1 µg/mL	0.884
S. aureus DSM 20231 [7], first compound 3.12 µg/mL, partner 2 µg/mL	0.864
S. aureus DSM 20231 [7], first compound 3.12 µg/mL, partner 4 µg/mL	0.969
S. aureus DSM 20231 [7], first compound 6.24 µg/mL, partner 1 µg/mL	0.722
S. aureus DSM 20231 [7], first compound 6.24 µg/mL, partner 2 µg/mL	0.706
S. aureus DSM 20231 [7], first compound 6.24 µg/mL, partner 4 µg/mL	0.736
S. aureus Newman [6], first compound 0.39 µg/mL, partner 8 µg/mL	0.916
S. aureus Newman [6], first compound 0.78 µg/mL, partner 8 µg/mL	0.931
S. aureus Newman [6], first compound 1.56 µg/mL, partner 8 µg/mL	0.983

fitness
Conditions	partner 1 µg/mL	partner 2 µg/mL	partner 4 µg/mL
B. subtilis 168 [5], first compound 0.39 µg/mL	0.934	0.947	0.891
B. subtilis 168 [5], first compound 0.78 µg/mL	0.921	0.863	0.949
B. subtilis 168 [5], first compound 1.56 µg/mL	0.968	0.888	0.941
S. aureus DSM 20231 [7], first compound 0.39 µg/mL	0.998	0.996	≥ 1
S. aureus DSM 20231 [7], first compound 0.78 µg/mL	0.988	≥ 1	0.995
S. aureus DSM 20231 [7], first compound 1.56 µg/mL	0.952	0.992	0.961
S. aureus Newman [6], first compound 0.78 µg/mL	0.996	0.943	0.958
S. aureus Newman [6], first compound 1.56 µg/mL	0.966	0.968	≥ 1
S. pneumoniae D39V [8], first compound 1 µg/mL	0.945	0.934	0.961
S. pneumoniae D39V [8], first compound 2 µg/mL	0.948	0.927	0.932
S. pneumoniae D39V [8], first compound 4 µg/mL	0.799	0.807	0.947

C[C@@H]1O[C@@H]1P(=O)(O)O [Fosfomycin] + Cc1cc(NS(=O)(=O)c2ccc(N)cc2)no1 [Sulfamethoxazol]
Conditions	Bliss interaction score
B. subtilis 168 [1]	-0.0756
S. aureus DSM 20231 [3]	-0.0688
S. aureus Newman [2]	0.0933
S. pneumoniae D39V [4]	-0.0416

fitness, one replicate
Conditions	first compound 0.781 µg/mL	first compound 1.562 µg/mL	first compound 3.124 µg/mL	first compound 6.248 µg/mL
B. subtilis 168 [5], partner 0.5 µg/mL	–	0.794	0.686	0.592
S. aureus Newman [6], partner 8 µg/mL	0.782	0.733	0.519	–

fitness
Conditions	partner 1 µg/mL	partner 2 µg/mL	partner 4 µg/mL
B. subtilis 168 [5], first compound 1.562 µg/mL	0.652	0.673	0.679
B. subtilis 168 [5], first compound 3.124 µg/mL	0.548	0.557	0.516
B. subtilis 168 [5], first compound 6.248 µg/mL	0.489	0.378	0.379
S. aureus DSM 20231 [7], first compound 0.781 µg/mL	0.709	0.696	0.678
S. aureus DSM 20231 [7], first compound 1.562 µg/mL	0.547	0.581	0.581
S. aureus DSM 20231 [7], first compound 3.124 µg/mL	0.49	0.503	0.509
S. aureus Newman [6], first compound 0.781 µg/mL	0.627	0.705	0.71
S. aureus Newman [6], first compound 1.562 µg/mL	0.513	0.572	0.496
S. aureus Newman [6], first compound 3.124 µg/mL	0.211	–	0.141
S. pneumoniae D39V [8], first compound 1.25 µg/mL	0.957	0.935	0.955
S. pneumoniae D39V [8], first compound 2.5 µg/mL	0.918	0.925	0.943
S. pneumoniae D39V [8], first compound 5 µg/mL	0.757	0.756	0.78
